fluorescein = fluorescein label at the N-terminus
These substances were tested on scutellum and somatic embryos of triticale (assay: CPP delivery of mCherry protein, confocal microscopy). Conditions: mCherry 1 μM with 60 μM CPP, overnight at RT.
Format: cell-based
Text: The fluorescent mCherry protein was chosen as the protein, while scutellum (dissected out of immature caryopses) and isolated microspore culture-derived somatic embryos of triticale were used as choice of tissue. Both scutellum and somatic embryos are amenable to tissue culture and can undergo somatic embryogenesis to regenerate green plants providing a direct means to obtain modified plants following a biocompatible CPP induced transduction. Scutellum is representative of a diploid tissue while microspore culture derived somatic embryos is a haploid tissue.
The protein:CPP complex was prepared by individually mixing mCherry protein (1 μM) with 60 μM of the 3 CPPs. Both scutellum and somatic embryos of triticale were treated with these different complex formulations overnight at RT. […] The red fluorescent signal was detected by confocal microscopy within both scutellum and somatic embryo cells.

Row | Substance | Delivery of mCherry inside the cells, red fluorescent signal
1 | RRIRRRLRRRPKPRRRRRRR [CPP17] | able to interact noncovalently with mCherry, subsequently delivering it inside the cells
2 | RRRRCTRRRTRSRRRPRR [CPP3] | able to interact noncovalently with mCherry, subsequently delivering it inside the cells
3 | RRRRRRRRHLRR [CPP34] | able to interact noncovalently with mCherry, subsequently delivering it inside the cells

These substances were tested on isolated microspores of Triticale (variety Sunray) (assay: CPP delivery of GUS enzyme into isolated microspores, GUS staining). Conditions: GUS enzyme cargo:CPP 1:4, 1 hour at 37° C., three repeats.
Format: cell-based
Method: Triticale line Sunray grown in a growth cabinet with a photoperiod of 19 h day (intensity 300 μE m-2 s-1), and temperature 18-15° C. (day-night) with a relative humidity at about 70% was used as the donor plant material. The plants were fertilized every 2 weeks (20-20-20, 200 ppm) and treated with 2.5 ml I-1 Tilt™ (propiconazole, Syngenta) during the tillering stage and Intercept™ (0.004 g per litre of soil, Imidacloprid, Bayer) once sufficient root development was established. The first 10 tillers from each pot were harvested when the spike was at 3-4 cm, depending on the crop, from emergence from the boot. These tillers (to be used for microspore isolation) were subjected to pre-treatment in a refrigerator (4° C.) for 21 days with their bases in distilled water and their heads wrapped in aluminum foil. After 21±3 days of pre-treatment, the spikes were excised from their tillers and after an evaluation of their general appearance, only the most homogenous spikes were used. After confirming microspores at mid to bi-nucleate stage from a median floret, using acetocarmine staining, the tillers were processed for extraction.
Awns were removed with scissors in a laminar flow hood. Eight-fourteen spikes were used for microspore isolation. They were sterilized with 10% bleach (5.25% sodium hypochlorite) for 3 min followed by rinsing in sterile double distilled water four times of 1 min each with constant agitation. Outer glumes were removed and florets from all the spikes were aseptically dissected and transferred to a sterile and refrigerated 110 ml Warring blender cup (VWR international, #58983-093) containing 50 ml filter sterilized extraction buffer at 4° C. Florets were then blended twice for 7 s at low speed (18000 rpm). The slurry was then poured through a 1 mm sieve followed by pouring through a 100 μm sterile mesh (VWR International, #CA21008-950) into two 50 ml centrifuge tubes (25 ml each). The blender cup was rinsed with 50 ml extraction buffer at 4° C. and poured through the 100 μm mesh and was added to the first aliquot in the 50 ml tubes. The cells were then pelleted by centrifugation (100×g for 5 min at 4° C.) using a swinging bucket rotor. After pouring off the supernatant, the microspore-containing pellets were pooled together in one 50 ml tube and re-suspended in 50 ml cold extraction buffer. The cells were pelleted again with centrifugation (100×g for 5 min at 4° C.), the supernatant poured off and the pellet was transferred to a 15 ml tube. After re-suspending the pellet in CIMC Wash Buffer supplemented with 10 microM SS-31 peptide, it was subjected to wash and centrifugation using the above conditions. The supernatant was removed and the pellet was re-suspended in CIMC Wash buffer and centrifugation was repeated as above. The pellet was then suspended in 7 mL of 20% maltose at 4° C., layered with 1 mL of CIMC wash buffer and was centrifuged at 100 g for 13 min at 4° C. A band of microspores formed at the interface was collected in a new 15 ml tube. The cells were diluted with CIMC wash solution and subsequently collected by centrifugation at 150 g for 5 min. The supernatant was removed and the cells were finally suspended in a total volume of 1.4 ml of appropriate solution. After counting the cells using a haemocytometer, aliquots of 100,000 cells in 200 μl volume were prepared in 2 ml microcentrifuge tubes to be ready for transduction.
Peptide stock solutions were made in water at 1 μg/μl concentration. CPP (Nanocarrier) and GUS enzyme (cargo) were first prepared in separate microcentrifuge tubes. A total of 4 μg of CPP was prepared in sterile water to a final volume of 100 μl. Similarly, 1 μg of GUS enzyme was added to sterile water to a final volume of 100 μl. The contents of the two tubes were mixed together giving a ratio of 1:4 protein cargo:CPP. The complex was incubated for 30 min at room temperature (RT). Chariot (PAP1) protein delivering reagent was used as a positive control in the experiments. […]

Row | Substance | Average Transduction Efficiency [%]
4 | KAKKNRSHIGKLKMTKTSGRKRSR [CPP21] | 0
5 | KEKKKERRGVRDKERDK [CPP53] | 0
6 | KGHRFRSKFRHYRFRFR [CPP45] | 0
7 | KKKGKGKKKKQGK [CPP4] | 0
8 | KKKKKKKRPTALTPTPSLLRRRRRRR [CPP26] | 0
9 | KRKKSGKKKKIGRFLSRLVGAEKRR [CPP9] | 5.79
10 | KRKPKGGDAAEGSEKRKPKKKK [CPP16] | 0
11 | KRRRSWRRRRSRTRQRRRRSRRRRRRRR [CPP41] | 21.17
12 | KSKANRHRHHRRHRQQKPTTTRRRRR [CPP64] | 5.40
13 | KTAATTLRRRRRRRRGRR [CPP28] | 5.61
14 | MALERPWKRRRRRRR [CPP47] | 0
15 | MDERRRRRRRLTATRKVAAARRRRKRR [CPP54] | 6.21
16 | MRRRRRRRRR [CPP48] | 1.09
17 | RAGVDGRGRRRRRRRR [CPP50] | 1.31
18 | RARRRSTARRRKRRTPTRSGR [CPP32] | 1.26
19 | RAWYRFRHLVRGKWRERLRRKFK [CPP62] | 9.78
20 | RCRRRRRRRETTSR [CPP67] | 0
21 | RKEKKRIKQRKAFIMAEKKKRK [CPP13] | 0
22 | RKKKGKRKEERER [CPP55] | 0
23 | RKQPGRKPGVRTARPKRSKKSQLKK [CPP58] | 0
24 | RKRKEENTGRRRRRRRERKRR [CPP22] | 1.94
25 | RKRKRGKGIGSGRGRGRGR [CPP43] | 0
26 | RKRKRGKGIGSGRGRGRGRASGSEKGRGSGKGKAK [CPP44] | 11.27

Row | Substance | Average Transduction Efficiency [%]
27 | RLKRRRRRRRKVSRR [CPP33] | 15.67
28 | RLRRLLLPLRRRRRLRQRRR [CPP25] | 8.7
29 | RPLPLPLPLPRGPRRRRRRR [CPP30] | 0
30 | RRARRRTRRGGGEAGRRQERRRRRRRR [CPP31] | 0
31 | RRDGVPRRRRRRRHMGRQR [CPP27] | 2.06
32 | RRFRRTAPRAAGEARGLRRLRKSR [CPP57] | 5.77
33 | RRGWRWRSAPRGGSRRRRRRRR [CPP12] | 5.25
34 | RRHRQQKPTTTRRRRR [CPP65] | 0
35 | RRIRRRLRRRPKPRRRRRRR [CPP17] | 46.54
36 | RRKNDKPKTGGEKKSTKDAPESSKKKNRK [CPP61] | 0
37 | RRLRCRREGKEKR [CPP60] | 0
38 | RRLTTGLSFYSKPYRRSRGPRHRTEKRKRIR [CPP56] | 5.47
39 | RRPHSRHRRRRRRR [CPP10] | 0
40 | RRRGIKPNAKRRRRRRRR [CPP23] | 0
41 | RRRGRRRRRRRRQRQQRR [CPP6] | 15.07
42 | RRRGRRRRRRRRQRQQRRQEGNRRR [CPP5] | 5.88
43 | RRRIAGSALVGAPPQARRRRRRR [CPP52] | 0
44 | RRRKGSSYRRRRRRRRR [CPP20] | 0
45 | RRRPRPARLRHRLHRPINLKFERK [CPP15] | 9.23
46 | RRRQERRER [CPP63] | 0
47 | RRRRARGKRCWLRRRRRR [CPP49] | 11.89
48 | RRRRCTRRRTRSRRRPRR [CPP3] | 57.63
49 | RRRRKKRGRKGRDKEERRDR [CPP42] | 1.20

Row | Substance | Average Transduction Efficiency [%]
50 | RRRRKKRGRKGRDKEERRDRRRRRRR [CPP11] | 16.61
51 | RRRRKKRGRKGRDKEERRDRRRRRRR [CPP40] | 11.74
52 | RRRRRITRVRRRRRRR [CPP39] | 13.15
53 | RRRRRRRAGERRAREDMGRRKFR [CPP19] | 0
54 | RRRRRRREKLAEATRGGGEKR [CPP35] | 0
55 | RRRRRRRGRDARRR [CPP8] | 2.78
56 | RRRRRRRRHEQRRRRRKRGRGR [CPP2] | 18.7
57 | RRRRRRRRHGRR [CPP24] | 18.77
58 | RRRRRRRRHLRR [CPP34] | 47.13
59 | RRRRRRRRRRKRGGRR [CPP14] | 0
60 | RRRRRRRRRRVRFDSRR [CPP7] | 16.63
61 | RRRRWRHRCATKTAATTLRRRRRRRRGRR [CPP29] | 22.25
62 | RRRVGRRAPRRRRR [CPP51] | 0
63 | RRSGRRQRRRRRRRRKR [CPP66] | 23.38
64 | RRSKRDVRGRQRRRRRRRLFPRR [CPP1] | 21.07
65 | RRSLLSRRIRRRLRRRPKPRRRRRRR [CPP46] | 9.31
66 | RRWRRRRSRRRRRRRRR [CPP18] | 0
67 | RSGRRDRRRKKGSAR [CPP59] | 0
68 | RSSRRAAEGRRRRRRRREKR [CPP36] | 0
69 | RTSKRRVRRRRRRR [CPP38] | 0
70 | RVRSSRRAAEGRRRRRRREKR [CPP37] | 1.94

What follows are substances tested on immature embryos (assay: Translocation of fluoresceinated CPPs in zygotic embryos, fluorescence microscopy). Conditions: in the presence of cellular permeabilizing agent (toluene).
Format: cell-based, Triticale cv AC Alta
Method: The embryos were isolated from spikes two weeks post-anthesis (scutellum diameter 1-2 mm). The immature seeds were surface sterilized with 70% ethanol for 30 s followed by treatment with 10% hypochlorite (Chlorex) and a drop of Tween 20, 3 min. Four washings of 1 min each were given with sterile water. The embryos were hand dissected under sterile conditions. Isolated embryos were placed on GEM medium (Eudes et al, 2003) for 24 h in dark at room temperature prior to CPP translocation studies.
Isolated and sterilized embryos (20-25) were imbibed in total volume of 420 μl permeabilization buffer (15 mM sodium chloride, 1.5 mM sodium citrate, pH 7.1) containing cellular permeabilization agent toluene/ethanol (1:4) in 1:20 ratio with permeabilization buffer. To this 2.1 μl of 1 mM fluoresceinated CPP was added to give a final concentration of 5 μM. In negative controls, the embryos were treated with FITC-dextran sulphate or M-Tat. The embryos were incubated in the permeabilization mix for 1 h in dark at room temperature, followed by two washings with permeabilization buffer. The embryos were then treated with trypsin:EDTA (0.25% solution, Sigma-Aldrich) in 1:2 ratio with permeabilization buffer for 5 min at room temperature to remove free peptide molecules. Embryos were washed two times with permeabilization buffer and subjected either for fluorescence microscopy or spectrofluorimetric analysis.

Row | Substance | Uptake seen by fluorescence microscopy (FIG. 1)
71 | Dextran Sulphate | some fluorescence

Same assay, conditions: mature and immature embryos, with or without permeabilization

Row | Substance | Fluorescence under fluorescence microscope, overall comparison
72 | Dextran Sulphate | none or very weak fluorescence
73 | FI-LLIILRRRIRKQAHAHSK-amide (fluorescein-LLIILRRRIRKQAHAHSK-NH2) [pVEC] | least uptake

Same assay, conditions: without cellular permeabilizing agent

Row | Substance | Uptake seen by fluorescence microscopy (FIG. 1)
74 | Dextran Sulphate | did not demonstrate any significant uptake
